Data on nine compounds can be found in ChEMBL document CHEMBL2440004, “The influence of saponins on cell membrane cholesterol” (Bioorg Med Chem, 2013).

Assay [1] concerns ECV-304. Briefly: Effect on [3H]cholesterol liberation from cell membrane of human ECV304 cells after 1 hr by liquid scintillation counting. The assay is classed as functional, cell membranes.
In assay [2] the test system is ECV-304. Briefly: Reduction in [3H]cholesterol uptake in human ECV304 cells after 1 hr by liquid scintillation counting. The class given is functional, cell-based.
The test system of assay [3] is ECV-304. Briefly: Cytotoxicity against human ECV304 cells after 72 hrs by MTT assay. The assay is classed as functional, cell-based. As to conditions: ECV-304, 72 h. For orientation: Formazan colour is commonly taken as a measure of viable cells.
The subject of assay [4] is ECV-304. Put plainly: Reduction in [3H]cholesterol content in cytoplasm membrane of human ECV304 cells at 5 uM after 1 hr by liquid scintillation counting. The assay is classed as functional, cell membranes.
Assay [5] concerns ECV-304. Put plainly: Membrane toxicity against human ECV304 cells after 2 hrs by LDH release assay. The assay is classed as functional, cell-based. As to conditions: ECV-304, 2 h. For orientation: LDH in the medium is a marker of cell lysis.
Assay [6] deals with ECV-304. Briefly: Reduction in [3H]cholesterol content in endosomal/lysosomal membrane of human ECV304 cells at 5 uM after 1 hr by liquid scintillation counting. The assay is classed as functional, cell membranes.

The source made the active and inactive calls. The calls are words filed in the database; no cut-off is given here. Where only a bound is given, the exact number is not on record here.

Consider `CC[C@H](CC[C@@H](C)[C@H]1CC[C@H]2[C@@H]3CC=C4C[C@@H](O)CC[C@]4(C)[C@H]3CC[C@]12C)C(C)C`, for which the outcome in the assay with ECV-304 [1] and in the assay with ECV-304 [2] was inactive.
On to `COC(=O)[C@@]1(C)CC[C@]2(C(=O)O[C@@H]3O[C@H](CO)[C@@H](O)[C@H](O)[C@H]3O)CC[C@]3(C)C(=CC[C@@H]4[C@@]5(C)CC[C@H](O[C@@H]6O[C@H](C(=O)O)[C@@H](O)[C@H](O)[C@H]6O)C(C)(C)[C@@H]5CC[C@]43C)[C@@H]2C1`, for which the half-maximal inhibitory concentration (IC50) in the assay with ECV-304 [3] was over 100 µM. Further, the outcome in the assay on ECV-304 [1] and in the assay on ECV-304 [2] was inactive.
As to `C[C@@H]1O[C@@H](O[C@H]2[C@@H](O)[C@H](O[C@H]3O[C@@H](C)[C@H](O[C@H]4OC[C@@H](O)[C@H](O[C@H]5OC[C@@H](O)[C@H](O)[C@H]5O)[C@H]4O)[C@@H](O)[C@H]3O)[C@H](OC(=O)[C@]34CCC(C)(C)C[C@H]3C3=CC[C@@H]5[C@@]6(C)CC[C@H](O[C@@H]7O[C@H](C(=O)O)[C@@H](O)[C@H](O[C@@H]8OC[C@H](O)[C@@H](O)[C@@H]8O)[C@H]7O[C@@H]7O[C@H](CO)[C@H](O)[C@H](O)[C@H]7O)[C@@](C)(C=O)[C@@H]6CC[C@@]5(C)[C@]3(C)CC4)O[C@H]2C)[C@@H](O)[C@H](O)[C@H]1O`, the outcome in the assay with ECV-304 [4] and with ECV-304 [1] was Active. Also, the IC50 in the assay with ECV-304 [3] worked out at 9 µM; in the assay with ECV-304 [5], 21 µM. Also, the Activity entry in the assay on ECV-304 [2] was “Dose-dependent effect”. The outcome in the assay on ECV-304 [6] was inactive.
In the assay with ECV-304 [3], `C[C@H]1O[C@@H](O[C@H]2[C@H](O)[C@@H](O[C@H]3CC[C@]4(C)[C@H]5CC=C6[C@@H]7CC(C)(C)CC[C@]7(C(=O)O[C@@H]7O[C@H](CO[C@@H]8OC[C@](O)(CO)[C@H]8O)[C@@H](O)[C@H](O)[C@H]7O)CC[C@@]6(C)[C@]5(C)CC[C@H]4C3(C)C)O[C@@H](C(=O)O)[C@@H]2O[C@@H]2OC[C@@H](O)[C@H](O)[C@H]2O)[C@@H](O)[C@@H](O)[C@@H]1O` showed a 50% inhibitory concentration (IC50) of over 100 µM. Further, the outcome with ECV-304 [1] and with ECV-304 [2] was inactive.
Turning to `CC1(C)[C@@H](O[C@H]2O[C@H](C(=O)O)[C@@H](O)[C@H](O)[C@H]2O[C@@H]2O[C@H](C(=O)O)[C@@H](O)[C@H](O)[C@H]2O)CC[C@]2(C)[C@H]3C(=O)C=C4[C@@H]5C[C@@](C)(C(=O)O)CC[C@]5(C)CC[C@@]4(C)[C@]3(C)CC[C@@H]12` [GLYCYRRHIZIN], the half-inhibitory concentration (IC50) with ECV-304 [3] is over 119 µM; in the assay on ECV-304 [5] it was over 238 µM. Besides, the result in the assay with ECV-304 [1] and in the assay on ECV-304 [2] was inactive.
For `C[C@H]1O[C@H](O[C@H]2[C@H](O[C@H]3CC[C@]4(C)[C@H]5CC=C6[C@@H]7CC(C)(C)CC[C@]7(CO)[C@H](O)C[C@@]6(C)[C@]5(C)CC[C@H]4C3(C)C)O[C@H](C(=O)O)[C@H](O[C@H]3O[C@@H](CO[C@@H]4O[C@H](CO)[C@@H](O)[C@H](O)[C@H]4O)[C@@H](O)[C@@H](O)[C@@H]3O)[C@@H]2O)[C@@H](O)[C@@H](O)[C@@H]1O`, the IC50 with ECV-304 [3] came out at 13 µM; with ECV-304 [5] it was 58 µM. Further, the result with ECV-304 [1] was Active. Also, the Activity result with ECV-304 [2] is “Dose-dependent effect”.
Consider `C[C@@H]1O[C@@H](O[C@H]2[C@H](O[C@H]3CC[C@@]4(C)[C@@H](CC[C@]5(C)[C@@H]4CC=C4[C@@H]6CC(C)(C)CC[C@]6(C(=O)O[C@@H]6O[C@H](CO[C@@H]7O[C@H](CO)[C@@H](O[C@@H]8O[C@@H](C)[C@H](O)[C@@H](O)[C@H]8O)[C@H](O)[C@H]7O)[C@@H](O)[C@H](O)[C@H]6O)CC[C@]45C)[C@]3(C)CO)OC[C@H](O)[C@@H]2O)[C@H](O)[C@H](O)[C@H]1O` [KALOPANAXSAPONIN B], for which the IC50 with ECV-304 [3] and in the assay on ECV-304 [5] was over 164 µM in each case. The result in the assay on ECV-304 [1] and with ECV-304 [2] was inactive.
Consider `C[C@@H]1O[C@@H](O[C@H]2[C@H](O[C@H]3CC[C@@]4(C)[C@@H](CC[C@]5(C)[C@@H]4CC=C4[C@@H]6CC(C)(C)CC[C@]6(C(=O)O)CC[C@]45C)[C@]3(C)CO)OC[C@H](O)[C@@H]2O)[C@H](O)[C@H](O)[C@H]1O`, for which the result with ECV-304 [1] was inactive. The Activity entry with ECV-304 [2] was “Dose-dependent effect”.
In turn, `C[C@@H]1O[C@H](O[C@H]2[C@@H](OC(=O)[C@]34CCC(C)(C)C[C@H]3C3=CC[C@@H]5[C@@]6(C)CC[C@H](O[C@@H]7O[C@H](C(=O)O)[C@@H](O)[C@H](O[C@H]8OC[C@@H](O)[C@H](O)[C@H]8O)[C@H]7O[C@@H]7O[C@H](CO)[C@H](O)[C@H](O)[C@H]7O)[C@@](C)(C=O)[C@@H]6CC[C@@]5(C)[C@]3(C)C[C@H]4O)O[C@H](C)[C@H](O)[C@@H]2O)[C@H](O)[C@H](O[C@@H]2O[C@H](CO)[C@@H](O)[C@H](O)[C@H]2O)[C@H]1O[C@H]1OC[C@@H](O)[C@H](O)[C@H]1O` had a half-maximal inhibitory concentration (IC50) in the assay on ECV-304 [3] of 8 µM. For the same compound, the outcome with ECV-304 [1] was Active. In addition, in the assay with ECV-304 [2], the Activity entry is “Dose-dependent effect”.

The term IC50 denotes the concentration that gives 50% inhibition. Higher therefore signals weaker potency.
